# In ChEMBL document CHEMBL1159162, “Conformationally constrained analogues of diacylglycerol (DAG). 3. Interaction of -alkyl--lactones with protein kinase C (PK-C)” (Bioorg Med Chem Lett, 1993):
# Organism: Mus musculus
# Experiment: (§1) Inhibition of [20-3H]phorbol-12,13-dibutyrate (PDBU) binding to protein kinase-C (PKC alpha, beta and gamma) from mouse brain
row,SMILES,ED50
1,CCCCCCCCCCCCCC(=O)O[C@H]1C(CCCCCCCCCCCC)C(=O)O[C@@H]1CO (stereo partly drawn),> 200000 nM
2,CCCCCCCCCCCCC1C(=O)O[C@H](CO)[C@H]1OC(C)=O (stereo partly drawn),> 100000 nM

# Target: not listed separately
# Experiment: as §1
row,SMILES,Ki
1,CCCCCCCCCCCCCC(=O)OC[C@H](CO)OC(C)=O,500 nM
2,CCCCCCCCCCCCCC[C@H]1C(=O)O[C@@H](CO)[C@@H]1OC(C)=O,600 nM
3,CCCCCCCCCCCCCC(=O)O[C@@H]1CC(=O)O[C@H]1CO,2500 nM
4,CCCCCCCCCCCC[C@H]1C(=O)O[C@@H](CO)[C@@H]1OC(C)=O,1100 nM

# The next lines start with the values.
row,Ki,SMILES
1,5300 nM,CCCCCCCCCCCCCC(=O)O[C@H]1CC(=O)O[C@@H]1CO
2,2900 nM,CCCCCCCCCCCCCC(=O)O[C@H]1[C@H](CO)OC(=O)[C@@H]1CCCCCCCCCCCC
